Measurements from the supplement of paper PMC12463676, “Small-molecule dissolution of stress granules by redox modulation benefits ALS models” (Nature Chemical Biology, 2025).

Tests used:
[1] = compound: O=[As]([O-])(O)O.[K+] [potassium arsenate]; test: thermal stability z-score vs DMSO; higher = more thermally stabilized by treatment; details: HeLa; arsenate concentration 1 mM
Method: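 Cellular thermal proteome profiling in HeLa cells treated with 1 mM arsenate for 1 h (DMSO pretreatment), heated to ten temperatures (37-66.3 °C). Soluble protein was quantified by TMT mass spectrometry relative to DMSO controls; the thermal stability score was transformed to a z-score; mean of n = 3 experiments.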

[2] = compound: NC(=O)CCCCC1CCSS1 [lipoamide]; test: as above; details: HeLa, lipoamide concentration 100 µM
Method: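 Cellular thermal proteome profiling in HeLa cells. Cells were treated with 100 µM lipoamide for 1 h, with or without 1 mM arsenate for a further 1 h, then heated to ten temperatures (37-66.3 °C), and soluble protein was quantified by TMT mass spectrometry relative to 0.1% DMSO controls. The thermal stability score (sum of log2 fold changes minus the abundance score) was transformed to a z-score; mean of n = 3 experiments.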

[3] = arsenate co-treatment: 1 mM arsenate 1 h
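Also: each temperature applied for 3 min, abundance score taken as mean log2 fold change at the two lowest temperatures, z-score obtained by mean subtraction and division by SD.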

Sequence of UniProt O75874 (O75874 whole entry): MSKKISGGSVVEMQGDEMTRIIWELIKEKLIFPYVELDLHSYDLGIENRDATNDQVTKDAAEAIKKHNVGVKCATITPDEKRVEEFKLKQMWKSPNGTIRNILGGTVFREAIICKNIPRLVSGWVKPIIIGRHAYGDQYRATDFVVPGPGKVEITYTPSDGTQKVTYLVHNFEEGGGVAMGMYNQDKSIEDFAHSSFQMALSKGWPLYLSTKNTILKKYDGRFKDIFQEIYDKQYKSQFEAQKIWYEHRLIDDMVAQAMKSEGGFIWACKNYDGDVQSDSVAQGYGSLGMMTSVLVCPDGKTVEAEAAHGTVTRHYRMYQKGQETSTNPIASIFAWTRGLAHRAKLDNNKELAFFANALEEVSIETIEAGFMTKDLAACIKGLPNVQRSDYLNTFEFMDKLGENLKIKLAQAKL
Sequence of UniProt Q14692 (Q14692 whole entry): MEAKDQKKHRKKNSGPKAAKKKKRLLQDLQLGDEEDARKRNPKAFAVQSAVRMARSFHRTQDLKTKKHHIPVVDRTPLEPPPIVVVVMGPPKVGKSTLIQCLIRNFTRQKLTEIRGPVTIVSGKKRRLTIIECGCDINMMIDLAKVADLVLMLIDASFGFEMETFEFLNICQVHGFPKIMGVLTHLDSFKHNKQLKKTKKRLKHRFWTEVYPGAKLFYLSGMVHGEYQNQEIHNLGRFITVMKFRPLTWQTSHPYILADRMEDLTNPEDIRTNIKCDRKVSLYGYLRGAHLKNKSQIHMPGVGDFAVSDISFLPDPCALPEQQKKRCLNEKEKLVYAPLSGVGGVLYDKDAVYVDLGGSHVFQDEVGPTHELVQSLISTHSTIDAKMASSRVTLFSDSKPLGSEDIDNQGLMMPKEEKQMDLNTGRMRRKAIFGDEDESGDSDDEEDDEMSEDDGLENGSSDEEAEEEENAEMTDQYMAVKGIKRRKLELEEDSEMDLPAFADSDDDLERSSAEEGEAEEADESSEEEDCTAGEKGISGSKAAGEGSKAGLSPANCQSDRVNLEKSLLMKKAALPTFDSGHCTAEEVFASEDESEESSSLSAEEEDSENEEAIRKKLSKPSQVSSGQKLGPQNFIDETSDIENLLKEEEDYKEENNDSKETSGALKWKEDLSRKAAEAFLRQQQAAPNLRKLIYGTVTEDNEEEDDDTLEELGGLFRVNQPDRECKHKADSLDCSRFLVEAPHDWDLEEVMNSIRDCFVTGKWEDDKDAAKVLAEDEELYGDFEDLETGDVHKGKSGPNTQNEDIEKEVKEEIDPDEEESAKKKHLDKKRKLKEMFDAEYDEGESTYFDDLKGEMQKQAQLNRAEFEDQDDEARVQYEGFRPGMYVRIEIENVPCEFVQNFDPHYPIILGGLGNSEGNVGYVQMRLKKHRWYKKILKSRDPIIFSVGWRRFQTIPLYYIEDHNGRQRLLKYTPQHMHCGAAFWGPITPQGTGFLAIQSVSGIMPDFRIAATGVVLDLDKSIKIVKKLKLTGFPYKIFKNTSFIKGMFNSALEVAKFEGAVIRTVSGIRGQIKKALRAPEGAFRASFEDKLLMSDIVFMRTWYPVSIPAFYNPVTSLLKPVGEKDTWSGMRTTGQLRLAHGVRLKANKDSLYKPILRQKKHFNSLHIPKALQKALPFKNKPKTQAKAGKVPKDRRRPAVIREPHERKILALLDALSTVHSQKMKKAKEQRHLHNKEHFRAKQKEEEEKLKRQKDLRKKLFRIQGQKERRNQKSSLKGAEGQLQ
Sequence of UniProt P05549 (P05549 whole entry): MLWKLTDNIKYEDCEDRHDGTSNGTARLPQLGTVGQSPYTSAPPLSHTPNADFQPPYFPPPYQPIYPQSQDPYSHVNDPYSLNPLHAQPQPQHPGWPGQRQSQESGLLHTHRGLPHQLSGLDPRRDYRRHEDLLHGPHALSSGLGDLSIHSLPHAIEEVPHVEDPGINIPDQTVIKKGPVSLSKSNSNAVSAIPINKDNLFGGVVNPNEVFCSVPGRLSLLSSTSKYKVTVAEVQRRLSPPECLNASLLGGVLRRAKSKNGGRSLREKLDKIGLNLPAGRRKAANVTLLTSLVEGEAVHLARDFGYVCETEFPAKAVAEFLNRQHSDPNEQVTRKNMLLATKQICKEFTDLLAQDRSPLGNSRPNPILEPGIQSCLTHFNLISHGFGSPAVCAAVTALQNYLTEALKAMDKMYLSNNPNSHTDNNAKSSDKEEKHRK
Sequence of UniProt P23434 (P23434 whole entry): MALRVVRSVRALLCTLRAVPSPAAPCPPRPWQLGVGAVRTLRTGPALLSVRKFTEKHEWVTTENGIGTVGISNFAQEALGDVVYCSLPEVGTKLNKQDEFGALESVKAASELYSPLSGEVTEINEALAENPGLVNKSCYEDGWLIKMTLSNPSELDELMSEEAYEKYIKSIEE
Sequence of UniProt Q8WXW3 (Q8WXW3 whole entry): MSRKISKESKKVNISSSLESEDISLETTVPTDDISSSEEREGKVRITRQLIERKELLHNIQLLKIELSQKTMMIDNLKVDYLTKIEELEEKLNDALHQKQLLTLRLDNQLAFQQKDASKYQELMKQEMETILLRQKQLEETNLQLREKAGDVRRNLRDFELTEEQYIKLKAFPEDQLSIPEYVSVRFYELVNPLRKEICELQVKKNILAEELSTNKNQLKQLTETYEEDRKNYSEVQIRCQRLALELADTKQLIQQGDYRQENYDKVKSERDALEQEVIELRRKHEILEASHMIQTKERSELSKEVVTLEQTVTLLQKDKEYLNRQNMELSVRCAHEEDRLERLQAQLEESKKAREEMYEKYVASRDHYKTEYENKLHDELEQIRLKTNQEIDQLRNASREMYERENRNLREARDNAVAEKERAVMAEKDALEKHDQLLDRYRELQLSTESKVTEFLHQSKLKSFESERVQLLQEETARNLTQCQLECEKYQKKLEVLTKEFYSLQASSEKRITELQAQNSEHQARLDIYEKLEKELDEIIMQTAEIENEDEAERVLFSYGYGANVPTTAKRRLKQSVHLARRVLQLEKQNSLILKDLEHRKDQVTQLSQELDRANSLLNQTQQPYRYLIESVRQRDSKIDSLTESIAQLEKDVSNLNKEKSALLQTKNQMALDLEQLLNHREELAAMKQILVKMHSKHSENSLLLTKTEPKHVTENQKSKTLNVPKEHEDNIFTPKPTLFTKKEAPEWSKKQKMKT
Sequence of UniProt P27361 (P27361 whole entry): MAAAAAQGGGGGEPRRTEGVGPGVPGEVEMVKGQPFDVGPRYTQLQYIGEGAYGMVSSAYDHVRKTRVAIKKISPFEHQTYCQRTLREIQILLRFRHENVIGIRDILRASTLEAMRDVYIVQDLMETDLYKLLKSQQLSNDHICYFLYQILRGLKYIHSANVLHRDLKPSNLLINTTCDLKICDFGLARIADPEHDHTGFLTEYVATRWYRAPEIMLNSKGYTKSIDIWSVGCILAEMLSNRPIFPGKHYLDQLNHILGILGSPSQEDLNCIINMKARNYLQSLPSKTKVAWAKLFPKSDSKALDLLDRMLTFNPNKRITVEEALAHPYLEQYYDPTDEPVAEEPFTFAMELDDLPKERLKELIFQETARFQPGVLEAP
Sequence of UniProt P27348 (P27348 whole entry): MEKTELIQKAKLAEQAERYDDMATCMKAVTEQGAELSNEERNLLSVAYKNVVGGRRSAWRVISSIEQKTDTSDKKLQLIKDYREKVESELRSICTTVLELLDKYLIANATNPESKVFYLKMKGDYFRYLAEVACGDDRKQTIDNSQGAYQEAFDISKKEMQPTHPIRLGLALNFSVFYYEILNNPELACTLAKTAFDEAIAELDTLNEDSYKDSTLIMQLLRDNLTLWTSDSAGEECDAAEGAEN
Sequence of UniProt Q9NRW3 (Q9NRW3 whole entry): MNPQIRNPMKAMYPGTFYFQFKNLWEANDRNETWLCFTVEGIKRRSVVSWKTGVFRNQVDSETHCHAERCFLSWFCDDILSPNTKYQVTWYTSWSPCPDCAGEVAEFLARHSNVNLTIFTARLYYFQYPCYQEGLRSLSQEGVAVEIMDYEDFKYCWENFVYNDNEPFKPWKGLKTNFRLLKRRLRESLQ
Sequence of UniProt Q9UBD5 (Q9UBD5 whole entry): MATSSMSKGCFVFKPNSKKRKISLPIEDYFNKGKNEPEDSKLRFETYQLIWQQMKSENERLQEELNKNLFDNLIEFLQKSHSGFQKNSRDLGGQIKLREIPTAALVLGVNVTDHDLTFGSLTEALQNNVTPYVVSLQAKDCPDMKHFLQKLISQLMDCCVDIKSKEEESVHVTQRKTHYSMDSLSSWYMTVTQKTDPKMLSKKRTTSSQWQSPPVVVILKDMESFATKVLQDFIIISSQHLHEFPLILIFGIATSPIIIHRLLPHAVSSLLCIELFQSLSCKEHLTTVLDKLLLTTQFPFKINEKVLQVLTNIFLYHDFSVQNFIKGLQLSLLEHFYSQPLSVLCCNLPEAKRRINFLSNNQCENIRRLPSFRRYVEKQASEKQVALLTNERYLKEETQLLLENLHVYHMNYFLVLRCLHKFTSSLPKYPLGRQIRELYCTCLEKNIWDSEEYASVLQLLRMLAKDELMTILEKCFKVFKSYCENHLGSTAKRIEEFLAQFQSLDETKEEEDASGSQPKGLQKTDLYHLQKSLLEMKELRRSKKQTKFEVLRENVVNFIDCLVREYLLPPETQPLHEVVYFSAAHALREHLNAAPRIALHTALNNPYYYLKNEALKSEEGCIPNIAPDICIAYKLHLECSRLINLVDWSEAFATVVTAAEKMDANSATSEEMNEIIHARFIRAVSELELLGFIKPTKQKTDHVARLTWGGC
Sequence of UniProt O77932 (O77932 whole entry): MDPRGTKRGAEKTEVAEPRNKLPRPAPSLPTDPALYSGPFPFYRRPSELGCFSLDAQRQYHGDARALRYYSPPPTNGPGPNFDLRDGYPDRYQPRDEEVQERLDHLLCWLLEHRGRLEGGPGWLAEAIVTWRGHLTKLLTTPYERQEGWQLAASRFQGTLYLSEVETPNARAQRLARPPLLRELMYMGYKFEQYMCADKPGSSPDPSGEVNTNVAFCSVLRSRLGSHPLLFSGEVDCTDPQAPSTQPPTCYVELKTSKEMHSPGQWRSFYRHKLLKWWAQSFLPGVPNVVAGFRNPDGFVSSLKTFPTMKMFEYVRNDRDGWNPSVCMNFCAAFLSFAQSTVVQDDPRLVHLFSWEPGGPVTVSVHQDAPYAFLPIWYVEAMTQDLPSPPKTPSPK

PEX5 (UniProt P50542) was tested. Which thermal stability z-score [1] did it give?
The thermal stability z-score was 0.137.

What about the thermal stability z-score [2, 3] of the same target?
Its thermal stability z-score is -0.624.

And the thermal stability z-score ([2]; arsenate co-treatment: none)?
Its thermal stability z-score is -0.706.

How did the thermal stability z-score [1] turn out when PVR (UniProt P15151) was run?
Its thermal stability z-score is 0.0637.

What about the thermal stability z-score [2, 3] of the same target?
The thermal stability z-score was -0.158.

And the thermal stability z-score ([2]; arsenate co-treatment: none)?
Its thermal stability z-score is -0.0762.

With MAPK3 (UniProt P27361) as the target, how does the thermal stability z-score [1] read?
Its thermal stability z-score is -0.214.

What about the thermal stability z-score [2, 3] of the same target?
The thermal stability z-score was -0.115.

And the thermal stability z-score ([2]; arsenate co-treatment: none)?
The thermal stability z-score was -0.114.

Which results are given for QDPR (UniProt P09417)?
thermal stability z-score [1]: -1.26; thermal stability z-score [2, 3]: 0.36; thermal stability z-score ([2]; arsenate co-treatment: none): 0.387

Which results are given for DXO (UniProt O77932)?
thermal stability z-score [1]: 0.0286; thermal stability z-score [2, 3]: 0.186; thermal stability z-score ([2]; arsenate co-treatment: none): 0.216

Which thermal stability z-score [1] does the source give for ELP5 (UniProt Q8TE02) here?
The thermal stability z-score was 0.489.

What about the thermal stability z-score [2, 3] of the same target?
The thermal stability z-score was -0.313.

And the thermal stability z-score ([2]; arsenate co-treatment: none)?
The thermal stability z-score was -0.364.

Which thermal stability z-score [1] does the source give for CABLES1 (UniProt Q8TDN4) here?
Its thermal stability z-score is -0.0215.

What about the thermal stability z-score [2, 3] of the same target?
The thermal stability z-score was 0.124.

And the thermal stability z-score ([2]; arsenate co-treatment: none)?
Its thermal stability z-score is 0.218.

How did the thermal stability z-score [1] turn out when SND1 (UniProt Q7KZF4) was run?
Its thermal stability z-score is -1.08.

What about the thermal stability z-score [2, 3] of the same target?
The thermal stability z-score was 0.317.

And the thermal stability z-score ([2]; arsenate co-treatment: none)?
The thermal stability z-score was 0.479.

What does the source list for YWHAQ (UniProt P27348)?
thermal stability z-score [1]: 0.199; thermal stability z-score [2, 3]: 0.857; thermal stability z-score ([2]; arsenate co-treatment: none): 0.727

With TRIOBP (UniProt Q9H2D6) as the target, how does the thermal stability z-score [1] read?
Its thermal stability z-score is 0.379.

What about the thermal stability z-score [2, 3] of the same target?
Its thermal stability z-score is -0.339.

And the thermal stability z-score ([2]; arsenate co-treatment: none)?
Its thermal stability z-score is -0.147.

Which results are given for IDH1 (UniProt O75874)?
thermal stability z-score [1]: -0.596; thermal stability z-score [2, 3]: 0.0654; thermal stability z-score ([2]; arsenate co-treatment: none): -0.257

With TIMM13 (UniProt Q9Y5L4) as the target, how does the thermal stability z-score [1] read?
The thermal stability z-score was -0.381.

And the thermal stability z-score [2, 3]?
Its thermal stability z-score is 1.99.

And the thermal stability z-score ([2]; arsenate co-treatment: none)?
The thermal stability z-score was 1.56.

With GCSH (UniProt P23434) as the target, how does the thermal stability z-score [1] read?
The thermal stability z-score was -1.45.

And the thermal stability z-score [2, 3]?
The thermal stability z-score was 0.134.

And the thermal stability z-score ([2]; arsenate co-treatment: none)?
Its thermal stability z-score is -0.126.

For TMEM189 (UniProt A5PLL7), which thermal stability z-score [1] is on record?
The thermal stability z-score was -0.167.

What about the thermal stability z-score [2, 3] of the same target?
Its thermal stability z-score is -0.772.

And the thermal stability z-score ([2]; arsenate co-treatment: none)?
The thermal stability z-score was -0.595.

For RRN3 (UniProt Q9NYV6), which thermal stability z-score [1] is on record?
Its thermal stability z-score is -2.42.

And the thermal stability z-score [2, 3]?
Its thermal stability z-score is -0.321.

And the thermal stability z-score ([2]; arsenate co-treatment: none)?
The thermal stability z-score was -0.104.

What does the source list for CHPF (UniProt Q8IZ52)?
thermal stability z-score [1]: -0.257; thermal stability z-score [2, 3]: -1.5; thermal stability z-score ([2]; arsenate co-treatment: none): -0.387

What does the source list for BMS1 (UniProt Q14692)?
thermal stability z-score [1]: 0.723; thermal stability z-score [2, 3]: 0.575; thermal stability z-score ([2]; arsenate co-treatment: none): 0.482

Which results are given for ORC3 (UniProt Q9UBD5)?
thermal stability z-score [1]: -0.00481; thermal stability z-score [2, 3]: -0.0418; thermal stability z-score ([2]; arsenate co-treatment: none): -0.104

With NAA15 (UniProt Q9BXJ9) as the target, how does the thermal stability z-score [1] read?
The thermal stability z-score was 0.812.

And the thermal stability z-score [2, 3]?
The thermal stability z-score was 0.838.

What about the thermal stability z-score ([2]; arsenate co-treatment: none) of the same target?
Its thermal stability z-score is 0.593.

What does the source list for ZCCHC11 (UniProt Q5TAX3)?
thermal stability z-score [1]: -0.424; thermal stability z-score [2, 3]: -0.38; thermal stability z-score ([2]; arsenate co-treatment: none): -0.287

What does the source list for APEH (UniProt P13798)?
thermal stability z-score [1]: 0.225; thermal stability z-score [2, 3]: 0.391; thermal stability z-score ([2]; arsenate co-treatment: none): 0.223

APOBEC3C (UniProt Q9NRW3) was tested. Which thermal stability z-score [1] did it give?
Its thermal stability z-score is -0.53.

What about the thermal stability z-score [2, 3] of the same target?
Its thermal stability z-score is -0.418.

What about the thermal stability z-score ([2]; arsenate co-treatment: none) of the same target?
The thermal stability z-score was -0.453.

Which results are given for SAMM50 (UniProt Q9Y512)?
thermal stability z-score [1]: 1.08; thermal stability z-score [2, 3]: 0.182; thermal stability z-score ([2]; arsenate co-treatment: none): 0.601

Which thermal stability z-score [1] does the source give for PIBF1 (UniProt Q8WXW3) here?
The thermal stability z-score was -0.0727.

And the thermal stability z-score [2, 3]?
Its thermal stability z-score is -0.108.

And the thermal stability z-score ([2]; arsenate co-treatment: none)?
The thermal stability z-score was -0.184.

How did the thermal stability z-score [1] turn out when EXOG (UniProt Q9Y2C4) was run?
Its thermal stability z-score is 0.587.

What about the thermal stability z-score [2, 3] of the same target?
The thermal stability z-score was -0.359.

And the thermal stability z-score ([2]; arsenate co-treatment: none)?
Its thermal stability z-score is -0.451.

Which thermal stability z-score [1] does the source give for OSBP (UniProt P22059) here?
The thermal stability z-score was -1.62.

And the thermal stability z-score [2, 3]?
Its thermal stability z-score is 0.983.

And the thermal stability z-score ([2]; arsenate co-treatment: none)?
Its thermal stability z-score is 0.414.

AKT1 (UniProt P31749) was tested. Which thermal stability z-score [1] did it give?
The thermal stability z-score was -1.01.

And the thermal stability z-score [2, 3]?
Its thermal stability z-score is -0.698.

What about the thermal stability z-score ([2]; arsenate co-treatment: none) of the same target?
The thermal stability z-score was -0.638.

TFAP2A (UniProt P05549) was tested. Which thermal stability z-score [1] did it give?
The thermal stability z-score was 0.566.

What about the thermal stability z-score [2, 3] of the same target?
The thermal stability z-score was 0.831.

And the thermal stability z-score ([2]; arsenate co-treatment: none)?
The thermal stability z-score was 0.868.

MYCBP2 (UniProt O75592) was tested. Which thermal stability z-score [1] did it give?
Its thermal stability z-score is -0.207.

What about the thermal stability z-score [2, 3] of the same target?
The thermal stability z-score was -0.0354.

And the thermal stability z-score ([2]; arsenate co-treatment: none)?
The thermal stability z-score was 0.179.

With EAPP (UniProt Q56P03) as the target, how does the thermal stability z-score [1] read?
Its thermal stability z-score is -0.167.

What about the thermal stability z-score [2, 3] of the same target?
Its thermal stability z-score is 0.767.

What about the thermal stability z-score ([2]; arsenate co-treatment: none) of the same target?
The thermal stability z-score was 0.459.

With KCTD9 (UniProt Q7L273) as the target, how does the thermal stability z-score [1] read?
Its thermal stability z-score is -0.315.

What about the thermal stability z-score [2, 3] of the same target?
Its thermal stability z-score is 0.34.

What about the thermal stability z-score ([2]; arsenate co-treatment: none) of the same target?
The thermal stability z-score was 0.375.
